Among the data in patent publication US6432978B1, “SF2809-I,II,III,IV,V and VI substances exhibiting chymase-inhibiting activities” (Meiji Seika Kaisha, Ltd., priority 1998, dated 2002) are Solubility and IC50 values, retold here.

A short description of data set [1]: Solubility (physicochemical properties). The settings on record: in methanol, ethyl acetate, dimethylsulfoxide, chloroform, hexane and water; result in words.
For another data set, the target named is T1, human chymase (Homo sapiens, UniProt P23946).
T1 construct: made in house; host or cells: insect cells (Tn5) infected with recombinant baculovirus
T1 sequence (P23946 22-247): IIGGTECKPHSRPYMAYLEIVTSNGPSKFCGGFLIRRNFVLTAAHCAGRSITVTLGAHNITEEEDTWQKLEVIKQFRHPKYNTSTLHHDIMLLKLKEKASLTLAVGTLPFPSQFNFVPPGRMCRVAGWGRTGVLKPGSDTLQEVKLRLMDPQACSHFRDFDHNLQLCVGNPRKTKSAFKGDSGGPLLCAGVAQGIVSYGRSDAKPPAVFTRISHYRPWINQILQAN
The experiment in a line: Determination of chymase-inhibiting activity (Test Example 1). The settings on record: activated human recombinant chymase; substrate succinyl-alanyl-histidyl-prolyl-phenylalanyl-para-nitroanilide; buffer pH 8.0; room temperature, 5 minutes; absorbance at 405 nm; read-out: 50% inhibitory concentrations (IC50) against the human chymase. The data set is classed as biochemical. Here is the method:
In this Example, the chymase-inhibiting activity of SF2809 substances was determined as described below.
A human recombinant chymase was prepared in accordance with the method of Urata et al's report (Urata et al., J. Biol. Chem., Vol. 266, p.17173, 1991). Thus, cultivation was made of insect cells (Tn5) which had been infected with recombinant baculovirus containing therein such cDNA that encodes the human chymase. The resulting culture of the insect cells was filtered and the resultant supernatant was treated with Heparin-sepharose (Pharmacia's product) to recover the chymase. The chymase so recovered was then purified. Then, the purified chymase was activated in accordance with the method of Murakami et al's report (Murakami et al, J. Biol. Chem., Vol. 270, p.2218, 1991), after which the activated chymase was purified with Heparin-sepharose to afford an activated type of human chymase.
To 50 μl of a buffer A (comprising 0.5˜3.0 M NaCl, 50 mM tris hydrochloric acid, pH 8.0) which contained 1˜5 ng of the active-type of human chymase as prepared in (1) above, there was added 2 μl of a solution in dimethylsulfoxide (DMSO) of an SF2809 substance as the test substance. Then, to the resulting mixture, there was added 50 μl of a buffer A which contained 0.5 mM of succinyl-alanyl-histidyl-prolyl-phenylalanyl-para-nitroanilide (Buckem's product) as a substrate. The resultant admixture was incubated at room temperature for 5 minutes. The change in the absorbance at 405 nm of the reaction solution was measured with passage of the incubation time, thereby to examine the chymase-inhibiting activity of the SF2809 substance under test.

In the case of `Cn1c(=O)c(Cc2[nH]c3ccccc3c2CCO)c(O)c2ccccc21` [SF2809-III substance], in data set [1], the Solubility entry was “Soluble in methanol, ethyl acetate and dimethylsulfoxide; sparingly soluble in chloroform; and insoluble in hexane and water”. The IC50 at human chymase worked out at 2100 nM.
Regarding `CC(=O)NCCc1c(C(c2ccccc2)c2c(O)c3ccccc3n(C)c2=O)[nH]c2ccccc12` (stereo not drawn) [SF2809-V substance], the Solubility entry in data set [1] is “Soluble in methanol, ethyl acetate, dimethylsulfoxide and chloroform; and insoluble in hexane and water”. Further, the IC50 on human chymase stood at 43 nM.
As to `Cn1c(=O)c(C(c2ccc(O)cc2)c2[nH]c3ccccc3c2CCO)c(O)c2ccccc21` (stereo not drawn) [SF2809-IV substance], the Solubility entry in data set [1] was “Soluble in methanol, ethyl acetate and dimethylsulfoxide; sparingly soluble in chloroform; and insoluble in hexane and water”. For the same compound, the IC50 on human chymase is 81 nM.
Consider `CC(=O)NCCc1c(Cc2c(O)c3ccccc3n(C)c2=O)[nH]c2ccccc12` [SF2809-I substance], for which the Solubility entry in data set [1] was “Soluble in methanol, ethyl acetate and dimethylsulfoxide; sparingly soluble in chloroform; and insoluble in hexane and water”. Further, the IC50 on human chymase turned out to be 7300 nM.
`Cn1c(=O)c(C(c2ccccc2)c2[nH]c3ccccc3c2CCO)c(O)c2ccccc21` (stereo not drawn) [SF2809-VI substance]: in data set [1], the Solubility entry was “Soluble in methanol, ethyl acetate, dimethylsulfoxide and chloroform; and insoluble in hexane and water”. The IC50 on human chymase came to 14 nM.
Turning to `CC(=O)NCCc1c(C(c2ccc(O)cc2)c2c(O)c3ccccc3n(C)c2=O)[nH]c2ccccc12` (stereo not drawn) [SF2809-II substance], the Solubility result in data set [1] was “Soluble in methanol, ethyl acetate and dimethylsulfoxide; sparingly soluble in chloroform; and insoluble in hexane and water”. In addition, the IC50 on human chymase worked out at 41 nM.
